Assay results from paper PMC8151276, “An Integrated Approach toward NanoBRET Tracers for Analysis of GPCR Ligand Engagement” (Molecules, 2021).

What was measured:
Format in all cases: binding
CCR2 = target: T1, CCR2 (Homo sapiens, UniProt P41597); assay: NanoBRET screen HiBiT-CCR2 in HEK293
T1 construct: purchased Promega (in-house HiBiT-GPCR construct library, NanoBRET)
Protocol: (§1) Each tracer candidate was screened across the entire library of HiBiT-GPCR constructs using NanoBRET as the detection modality. As depicted in Figure 4A, the specificity of interactions was evaluated through decrease in BRET due to competitive displacement of a bound tracer by excess parental compound. Each tracer was analyzed for binding to each HiBiT-GPCR fusion in the absence and in the presence of competing parental compound. Briefly, HEK293 cells were transfected with HiBiT-GPCR constructs diluted into promoterless DNA to reduce expression and maximize translocation to the cell surface. Each tracer candidate was then screened at concentrations of 1 μM and 0.1 μM across cells expressing these fusions. Cells were treated for 1.5 h with tracer either alone or in the presence of 20 μM competing parental compound (i.e., control). BRET was measured upon addition of purified LgBiT and subsequent complementation with HiBiT genetically fused to a GPCR. The specificity of interactions was assessed through a decrease in BRET signal due to competitive displacement of the bound tracer. To further gauge the robustness of these interactions, the fold response over the control (i.e., BRETtracer/BRETcontrol) was calculated. We chose a 1.5-fold response, which translates to ≥7-fold signal over noise as the minimal threshold required to score an interaction as positive. […]. Below we highlight the screening results obtained for our exemplary fluorescent tracers based on Clozapine, Amitriptyline and AZD1283.
(§2) HiBiT-GPCR DNA constructs were diluted in 10 mM Tris pH 8 to a final concentration of 0.01 μg/μL, arrayed in 96-well plates and stored at −20 °C. For transfection, HEK293 cells were suspended in Opti-MEM (without phenol red) supplemented with 2% fetal bovine serum (Seradigm) and 100 units/mL penicillin–streptomycin (Gibco) at a final concentration of 220,000 cells/mL and dispensed into white 96-well plates at 90 μL/well. Subsequent transfections and screens were carried using an Agilent Bravo Automated Liquid Handling Platform. First, the 96-well HiBiT DNA arrays were diluted 25-fold in Opti-MEM (without serum or phenol red) to a final concentration of 0.0004 μg/μL and 20 μL of the diluted DNAs were transferred into new 96-well plates. Next, promoterless carrier DNA (1 μg/μL) was diluted 25-fold (0.04 μg/μL) and then dispensed into the diluted arrays at 20 μL/well. Following brief mixing, Viafect transfection reagent (Promega) diluted 16-fold into Opti-MEM was dispensed into the plates at 40 μL/well. After mixing by pipetting, plates were incubated for 10 min on the pipetting station deck. The DNA-transfection reagent complexes were then added to plates containing cells. To facilitate the screen, 10 μL of DNA-transfection reagent complexes were added in duplicates to the top 4 and bottom 4 rows, resulting in two identical 48-well arrays per plate. Plates with transfected cells were incubated for 18–20 h at 37 °C/5% CO2. A screen of each tracer across the entire library using two different concentrations requires duplicate plates of transfected cells. Depending on the number of tracers being screened, transfections can be scaled up using the same ratios. The next day, for each tracer, four 20× screening solutions in tracer dilution buffer (Promega) were prepared: two duplicates at final concentration of 20 μM and two duplicates at a final concentration of 2 μM. A competing unmodified compound was added to one of each duplicate at a final concentration of 400 μM. The four resulting solutions were diluted 4-fold in Opti-MEM without serum or phenol red to generate 5× solutions (5 µM and 0.5 µM tracer +/− 100 μM competing compound). To screen the library, a BioTek MultiFlo FX liquid dispenser was used to dispense 22.5 µL of tracer solution to the top 4 rows and 22.5 µL tracer + competing compound solution to the 4 bottom rows. Plates were briefly mixed on an orbital shaker and incubated for 1.5 h at room temperature. […]

DRD5 = target: T2, DRD5 (Homo sapiens, UniProt P21918); assay: NanoBRET screen HiBiT-DRD5 in HEK293
T2 construct: purchased Promega (in-house HiBiT-GPCR construct library, NanoBRET)
Protocol: as §1, §2

BDKRB1 = target: T3, BDKRB1 (Homo sapiens, UniProt P46663); assay: NanoBRET screen HiBiT-BDKRB1 in HEK293
T3 construct: purchased Promega (in-house HiBiT-GPCR construct library, NanoBRET)
T3 sequence (P46663 1-353): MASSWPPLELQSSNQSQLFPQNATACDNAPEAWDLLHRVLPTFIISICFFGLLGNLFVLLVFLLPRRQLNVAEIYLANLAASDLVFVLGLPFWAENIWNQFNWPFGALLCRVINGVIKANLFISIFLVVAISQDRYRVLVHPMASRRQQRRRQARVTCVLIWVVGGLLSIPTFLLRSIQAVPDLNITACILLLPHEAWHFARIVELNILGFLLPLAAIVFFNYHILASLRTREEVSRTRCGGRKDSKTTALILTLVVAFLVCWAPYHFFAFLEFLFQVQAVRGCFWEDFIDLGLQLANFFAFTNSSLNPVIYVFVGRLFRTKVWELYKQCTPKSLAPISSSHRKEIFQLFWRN
Protocol: as §1, §2

HCRTR1 = target: T4, HCRTR1 (Homo sapiens, UniProt O43613); assay: NanoBRET screen HiBiT-HCRTR1 in HEK293
T4 construct: purchased Promega (in-house HiBiT-GPCR construct library, NanoBRET)
T4 sequence (O43613 1-425): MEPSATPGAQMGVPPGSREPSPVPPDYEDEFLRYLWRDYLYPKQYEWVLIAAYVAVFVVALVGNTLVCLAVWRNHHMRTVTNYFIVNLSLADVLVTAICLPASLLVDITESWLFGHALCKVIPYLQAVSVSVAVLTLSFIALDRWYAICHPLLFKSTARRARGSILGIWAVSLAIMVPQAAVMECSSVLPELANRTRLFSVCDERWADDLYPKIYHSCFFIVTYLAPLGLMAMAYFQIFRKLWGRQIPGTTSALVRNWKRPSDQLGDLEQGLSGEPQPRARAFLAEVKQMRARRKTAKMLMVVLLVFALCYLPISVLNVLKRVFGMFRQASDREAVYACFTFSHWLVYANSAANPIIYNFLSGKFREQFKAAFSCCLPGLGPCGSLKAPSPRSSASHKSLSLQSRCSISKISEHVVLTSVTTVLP
Protocol: as §1, §2

T1 sequence (P41597 whole entry): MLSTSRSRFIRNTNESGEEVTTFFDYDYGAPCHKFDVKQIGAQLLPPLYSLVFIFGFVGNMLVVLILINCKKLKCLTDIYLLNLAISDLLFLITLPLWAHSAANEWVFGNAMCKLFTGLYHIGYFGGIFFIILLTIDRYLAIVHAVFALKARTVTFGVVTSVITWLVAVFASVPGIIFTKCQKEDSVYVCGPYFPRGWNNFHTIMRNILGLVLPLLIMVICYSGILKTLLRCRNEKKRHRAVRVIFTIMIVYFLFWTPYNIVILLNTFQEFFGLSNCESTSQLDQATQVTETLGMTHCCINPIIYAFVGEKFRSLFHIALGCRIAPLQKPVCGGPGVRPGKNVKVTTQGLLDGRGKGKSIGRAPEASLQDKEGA
T2 sequence (P21918 whole entry): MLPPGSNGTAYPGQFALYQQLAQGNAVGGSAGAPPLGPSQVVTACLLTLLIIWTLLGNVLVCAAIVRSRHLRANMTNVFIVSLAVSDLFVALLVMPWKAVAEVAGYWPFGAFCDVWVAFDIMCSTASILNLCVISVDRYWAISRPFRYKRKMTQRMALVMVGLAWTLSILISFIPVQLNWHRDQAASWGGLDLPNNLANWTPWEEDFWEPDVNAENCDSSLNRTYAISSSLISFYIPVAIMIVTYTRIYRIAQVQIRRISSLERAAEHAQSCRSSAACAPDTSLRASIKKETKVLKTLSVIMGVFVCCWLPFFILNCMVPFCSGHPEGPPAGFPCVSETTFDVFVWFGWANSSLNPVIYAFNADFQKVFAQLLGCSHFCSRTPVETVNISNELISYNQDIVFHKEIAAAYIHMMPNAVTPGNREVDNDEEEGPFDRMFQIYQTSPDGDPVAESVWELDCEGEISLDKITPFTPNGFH

O=C(CCc1ccc2n1[B-](F)(F)[N+]1=C(c3ccc[nH]3)C=CC1=C2)NCc1ccc(C(=O)NCCOCCC(=O)N[C@@H]2CC[C@@]3(O)[C@H]4Cc5ccc(O)c6c5[C@@]3(CCN4CC3CC3)[C@H]2O6)cc1 [Naltrexone-3-NB590]
NanoBRET Fold Response (CCR2; CCR2, tracer 0.1μM): 1.12
NanoBRET Fold Response (CCR2; CCR2, tracer 1μM): 0.70
NanoBRET Fold Response (DRD5; DRD5, tracer 0.1μM): 1.25
NanoBRET Fold Response (DRD5; DRD5, tracer 1μM): 1.07
NanoBRET Fold Response (BDKRB1; BDKRB1, tracer 0.1μM): 1.18
NanoBRET Fold Response (BDKRB1; BDKRB1, tracer 1μM): 1.03
NanoBRET Fold Response (HCRTR1; HCRTR1, tracer 0.1μM): 0.98
NanoBRET Fold Response (HCRTR1; HCRTR1, tracer 1μM): 0.88

CN1CCN(C2=Nc3cc(Cl)ccc3N(CC(=O)NCCOCCOCCOCCOCCNC(=O)CCc3ccc4n3[B-](F)(F)[N+]3=C(c5ccc[nH]5)C=CC3=C4)c3ccccc32)CC1 [Clozapine-c-2-NB590]
NanoBRET Fold Response (CCR2; CCR2, 0.1μM tracer): 0.94
NanoBRET Fold Response (CCR2; CCR2, 1μM tracer): 0.75
NanoBRET Fold Response (DRD5; DRD5, 0.1μM tracer): 0.98
NanoBRET Fold Response (DRD5; DRD5, 1μM tracer): 1.16
NanoBRET Fold Response (BDKRB1; BDKRB1, 0.1μM tracer): 1.06
NanoBRET Fold Response (BDKRB1; BDKRB1, 1μM tracer): 1.07
NanoBRET Fold Response (HCRTR1; HCRTR1, 0.1μM tracer): 0.98
NanoBRET Fold Response (HCRTR1; HCRTR1, 1μM tracer): 1.00

CN(CCC=C1c2ccccc2CCc2ccccc21)C(=O)CCOCCOCCOCCOCCNC(=O)CCc1ccc2n1[B-](F)(F)[N+]1=C(c3ccc[nH]3)C=CC1=C2 [Amitriptyline-e-2-NB590]
NanoBRET Fold Response (CCR2; tracer at 1μM): 0.90
NanoBRET Fold Response (DRD5; tracer at 1μM): 1.11

O=C(CCc1ccc2n1[B-](F)(F)[N+]1=C(c3ccc[nH]3)C=CC1=C2)NCc1ccc(C(=O)NCCOCCOCCNCC(O)COc2cccc3ccccc23)cc1 (centres unmarked) [Propranolol-3-NB590]
NanoBRET Fold Response (CCR2; CCR2, 0.1μM): 0.99
NanoBRET Fold Response (CCR2; CCR2, 1μM): 1.19
NanoBRET Fold Response (DRD5; DRD5, 0.1μM): 1.03
NanoBRET Fold Response (DRD5; DRD5, 1μM): 1.00
NanoBRET Fold Response (BDKRB1; BDKRB1, 0.1μM): 0.95
NanoBRET Fold Response (BDKRB1; BDKRB1, 1μM): 0.97
NanoBRET Fold Response (HCRTR1; HCRTR1, 0.1μM): 1.01
NanoBRET Fold Response (HCRTR1; HCRTR1, 1μM): 0.94

N#CN/C(=N\CCNC(=O)c1ccc(N)cc1)NCCCOc1cccc(CN2CCCCC2)c1 [Aminopotentidine (unmodified)]
NanoBRET Fold Response (DRD5; DRD5, other tracers/Aminopotentidine (unmodified), 0.1μM): 1.08
NanoBRET Fold Response (DRD5; DRD5, other tracers/Aminopotentidine (unmodified), 1μM): 1.09

O=C(CCc1ccc2n1[B-](F)(F)[N+]1=C(c3ccc[nH]3)C=CC1=C2)NCCOCCOCCNC(=O)OCCOCCN1CCN(C2=Nc3ccccc3Sc3ccccc32)CC1 [Quetiapine-a-2-NB590]
NanoBRET Fold Response (CCR2; CCR2, tracer 0.1μM): 1.00
NanoBRET Fold Response (CCR2; CCR2, tracer 1μM): 0.88
NanoBRET Fold Response (DRD5; DRD5, tracer 0.1μM): 1.09
NanoBRET Fold Response (DRD5; DRD5, tracer 1μM): 1.43
NanoBRET Fold Response (BDKRB1; BDKRB1, tracer 0.1μM): 1.42
NanoBRET Fold Response (BDKRB1; BDKRB1, tracer 1μM): 0.65
NanoBRET Fold Response (HCRTR1; HCRTR1, tracer 0.1μM): 0.98
NanoBRET Fold Response (HCRTR1; HCRTR1, tracer 1μM): 0.77

CN1CCN(C2=Nc3cc(Cl)ccc3Nc3ccc(CNC(=O)CCOCCOCCOCCOCCNC(=O)CCc4ccc5n4[B-](F)(F)[N+]4=C(c6ccc[nH]6)C=CC4=C5)cc32)CC1 [Clozapine-b-2-NB590]
NanoBRET Fold Response (CCR2; CCR2, 0.1μM tracer): 1.01
NanoBRET Fold Response (CCR2; CCR2, 1μM tracer): 0.93
NanoBRET Fold Response (DRD5; DRD5, 0.1μM tracer): 1.01
NanoBRET Fold Response (DRD5; DRD5, 1μM tracer): 1.83
NanoBRET Fold Response (BDKRB1; BDKRB1, 0.1μM tracer): 0.99
NanoBRET Fold Response (BDKRB1; BDKRB1, 1μM tracer): 0.92
NanoBRET Fold Response (HCRTR1; HCRTR1, 0.1μM tracer): 1.04
NanoBRET Fold Response (HCRTR1; HCRTR1, 1μM tracer): 1.01

CN(C)CCC=C1c2ccccc2CCc2ccc(C(=O)NCCNC(=O)CCOCCOCCOCCOCCNC(=O)CCc3ccc4n3[B-](F)(F)[N+]3=C(c5ccc[nH]5)C=CC3=C4)cc21 [Amitriptyline-a-2-NB590]
NanoBRET Fold Response (CCR2; tracer at 0.1μM): 1.19
NanoBRET Fold Response (CCR2; tracer at 1μM): 1.05
NanoBRET Fold Response (DRD5; tracer at 0.1μM): 1.11
NanoBRET Fold Response (DRD5; tracer at 1μM): 1.12
NanoBRET Fold Response (BDKRB1; tracer at 0.1μM): 1.13
NanoBRET Fold Response (BDKRB1; tracer at 1μM): 1.04
NanoBRET Fold Response (HCRTR1; tracer at 0.1μM): 1.00
NanoBRET Fold Response (HCRTR1; tracer at 1μM): 1.00

Cc1cc2c(s1)Nc1ccccc1N=C2N1CCN(CCCNC(=O)CCOCCOCCOCCOCCNC(=O)CCc2ccc3n2[B-](F)(F)[N+]2=C(c4ccc[nH]4)C=CC2=C3)CC1 [Olanzapine-a-2-NB590]
NanoBRET Fold Response (CCR2; CCR2, tracer 0.1μM): 1.00
NanoBRET Fold Response (CCR2; CCR2, tracer 1μM): 0.59
NanoBRET Fold Response (DRD5; DRD5, tracer 0.1μM): 1.20
NanoBRET Fold Response (DRD5; DRD5, tracer 1μM): 2.53
NanoBRET Fold Response (BDKRB1; BDKRB1, tracer 0.1μM): 0.83
NanoBRET Fold Response (BDKRB1; BDKRB1, tracer 1μM): 1.10
NanoBRET Fold Response (HCRTR1; HCRTR1, tracer 0.1μM): 0.98
NanoBRET Fold Response (HCRTR1; HCRTR1, tracer 1μM): 0.99

Cc1nc2n(c(=O)c1CCN1CCC(c3noc4cc(F)ccc34)CC1)CCCC2OC(=O)NCCOCCOCCOCCOCCNC(=O)CCc1ccc2n1[B-](F)(F)[N+]1=C(c3ccc[nH]3)C=CC1=C2 (centres unmarked) [Risperidone-2-NB590]
NanoBRET Fold Response (CCR2; CCR2, tracer 0.1μM): 1.01
NanoBRET Fold Response (CCR2; CCR2, tracer 1μM): 1.16
NanoBRET Fold Response (DRD5; DRD5, tracer 0.1μM): 1.92
NanoBRET Fold Response (DRD5; DRD5, tracer 1μM): 2.44
NanoBRET Fold Response (BDKRB1; BDKRB1, tracer 0.1μM): 1.28
NanoBRET Fold Response (BDKRB1; BDKRB1, tracer 1μM): 0.77
NanoBRET Fold Response (HCRTR1; HCRTR1, tracer 0.1μM): 1.01
NanoBRET Fold Response (HCRTR1; HCRTR1, tracer 1μM): 1.05
